Results as given in patent publication US6867207B2, “IL-5 inhibiting 6-azauracil derivatives” (Janssen Pharmaceutica N.V., priority 1997, dated 2005).

Tested on: IL-5 production
Assay: In vitro inhibition of IL-5 production in human blood (phytohemagglutinin-stimulated whole blood, ELISA);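 further: values marked with an asterisk were tested at 10 µM and unmarked values at 1 µM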
Type: cell-based
Details: test dose 1×10^−6 M, 48 hours
How it was run: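 Percent inhibition of IL-5, quantified by ELISA in cell-free supernatants, is given at a single dose of 1×10^−6 M (or 1×10^−5 M). Threefold-diluted human whole blood from healthy men received compound for 60 min at 37° C before 48 h PHA stimulation at 2 μg/mL.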

Going from O=c1cnn(-c2cc(Cl)c(C(c3ccc(Cl)cc3)c3nnc(CCOc4ccccc4)o3)c(Cl)c2)c(=O)[nH]1 (racemic) [Compound 187] to O=c1cnn(-c2cc(Cl)c(C(c3ccc(Cl)cc3)c3nnc(CCc4ccccc4)o3)c(Cl)c2)c(=O)[nH]1 (racemic) [Compound 172], the “% inh. (percentage inhibition of IL-5 production)” value falls from 25% to 17%.

Going from O=c1cnn(-c2ccc(C(c3ccc(Cl)cc3)c3ncc(-c4ccccc4)o3)c(Cl)c2)c(=O)[nH]1 (racemic) [Comp 103] to O=c1cnn(-c2ccc(C(c3ccc(Cl)cc3)c3nnc(-c4ccccc4)o3)c(Cl)c2)c(=O)[nH]1 (racemic) [Comp 101], the “% inh. (percentage inhibition of IL-5 production)” value rises from 63% to 66%.

First: CCOC(=O)N1CCC(c2nnc(C(c3ccc(Cl)cc3)c3c(Cl)cc(-n4ncc(=O)[nH]c4=O)cc3Cl)o2)CC1 (racemic) [Compound 191]
Second: O=c1cnn(-c2cc(Cl)c(C(c3ccc(Cl)cc3)c3nnc(-c4cccc(O)c4)o3)c(Cl)c2)c(=O)[nH]1 (racemic) [Compound 200]
The “% inh. (percentage inhibition of IL-5 production)” value of the first is lower: 19% for the first, 43% for the second.

Going from Cc1sc(SC(c2ccc(Cl)c(C(F)(F)F)c2)c2c(Cl)cc(-n3ncc(=O)[nH]c3=O)cc2Cl)nc1-c1ccccc1 (racemic) [Compound 405] to O=c1cnn(-c2cc(Cl)c(C(Sc3nc4cc(Cl)ccc4s3)c3ccc(Cl)c(C(F)(F)F)c3)c(Cl)c2)c(=O)[nH]1 (racemic) [Compound 402], the “% inh. (percentage inhibition of IL-5 production)” value rises from 80% to 90%.

Going from O=c1cnn(-c2cc(Cl)c(C(c3ccc(Cl)cc3)c3nnc(-c4ccccc4)s3)c(Cl)c2)c(=O)[nH]1 (centres unmarked) [Comp 427] to Cc1nc(-c2ccccc2)sc1C(c1ccc(Cl)cc1)c1c(Cl)cc(-n2ncc(=O)[nH]c2=O)cc1Cl (racemic) [Compound 138], the “% inh. (percentage inhibition of IL-5 production)” value rises from 72% to 81%.

First: O=c1cnn(-c2cc(Cl)c(C(Sc3ncccn3)c3ccc(Cl)cc3)c(Cl)c2)c(=O)[nH]1 (single isomer, unassigned) [Compound 347]
Second: Nc1ccnc(SC(c2ccc(Cl)cc2)c2c(Cl)cc(-n3ncc(=O)[nH]c3=O)cc2Cl)n1 (racemic) [Compound 348]
The “% inh. (percentage inhibition of IL-5 production)” value of the first is lower: 8% for the first, 83% for the second.

Going from O=c1cnn(-c2cc(Cl)c(C(c3ccc(Cl)cc3)c3nnc(-c4cccc(Cl)c4)o3)c(Cl)c2)c(=O)[nH]1 (racemic) [Compound 157] to Nc1ccc(-c2nnc(C(c3ccc(Cl)cc3)c3c(Cl)cc(-n4ncc(=O)[nH]c4=O)cc3Cl)o2)cc1 (racemic) [Compound 184], the “% inh. (percentage inhibition of IL-5 production)” value falls from 85% to 83%.

Going from Cc1ccccc1-c1csc(C(c2ccc(Cl)cc2)c2c(Cl)cc(-n3ncc(=O)[nH]c3=O)cc2Cl)n1 (racemic) [Comp 243] to O=c1cnn(-c2cc(Cl)c(C(c3ccc(Cl)cc3)c3nc(-c4ccccc4Br)cs3)c(Cl)c2)c(=O)[nH]1 (racemic) [Comp 244], the “% inh. (percentage inhibition of IL-5 production)” value falls from 97% to 95%.

First: Cc1nc(-c2ccccc2Cl)sc1C(c1ccc(Cl)cc1)c1ccc(-n2ncc(=O)[nH]c2=O)cc1Cl (racemic) [Compound 154]
Second: O=c1cnn(-c2cc(Cl)c(C(c3ccc(Cl)cc3)c3sc(-c4ccccc4Cl)nc3-c3ccccc3Cl)c(Cl)c2)c(=O)[nH]1 (racemic) [Compound 147]
The “% inh. (percentage inhibition of IL-5 production)” value of the first is lower: 42% for the first, 50% for the second.

First: Cl.O.O=c1cnn(-c2cc(Cl)c(C(c3ccc(Cl)cc3)c3csc(-c4ccncc4)n3)c(Cl)c2)c(=O)[nH]1 (racemic) [Compound 366]
Second: O=c1cnn(-c2cc(Cl)c(C(c3ccc(Cl)cc3)c3csc(-c4cccnc4)n3)c(Cl)c2)c(=O)[nH]1 (racemic) [Compound 375]
The “% inh. (percentage inhibition of IL-5 production)” value of the first is higher: 93% for the first, 91% for the second.

First: CN1CCC(N(C)Cc2sc(C(c3ccc(Cl)cc3)c3c(Cl)cc(-n4ncc(=O)[nH]c4=O)cc3Cl)nc2-c2ccccc2)CC1 (racemic) [Comp 322]
Second: CN(C)CCN(C)Cc1sc(C(c2ccc(Cl)cc2)c2c(Cl)cc(-n3ncc(=O)[nH]c3=O)cc2Cl)nc1-c1ccccc1 (racemic) [Comp 311]
The “% inh. (percentage inhibition of IL-5 production)” value of the first is higher: 96% for the first, 64% for the second.

First: O=c1cnn(-c2cc(Cl)c(C(c3ccc(Cl)cc3)c3nc(-c4ccccc4)c(Cc4ccccc4)s3)c(Cl)c2)c(=O)[nH]1 (racemic) [Comp 249]
Second: CCCc1sc(C(c2ccc(Cl)cc2)c2c(Cl)cc(-n3ncc(=O)[nH]c3=O)cc2Cl)nc1-c1ccccc1 (racemic) [Comp 245]
The “% inh. (percentage inhibition of IL-5 production)” value of the first is lower: 80% for the first, 98% for the second.

First: O=c1cnn(-c2ccc(C(Sc3nc4ccccc4o3)c3ccc(Cl)cc3)c(Cl)c2)c(=O)[nH]1 (racemic) [Compound 71]
Second: O=c1cnn(-c2cc(Cl)c(C(Sc3nc4ccccc4o3)c3ccc(Cl)cc3)c(Cl)c2)c(=O)[nH]1 (centres unmarked) [Compound 383]
The “% inh. (percentage inhibition of IL-5 production)” value of the first is higher: 84% for the first, 78% for the second.

Compared with O=c1cnn(-c2cc(Cl)c(C(Sc3ccccn3)c3ccc(Cl)cc3)c(Cl)c2)c(=O)[nH]1 (centres unmarked) [Compound 377], O=c1cnn(-c2cc(Cl)c(C(Sc3nc(-c4ccccc4)cs3)c3ccc(Cl)cc3)c(Cl)c2)c(=O)[nH]1 (centres unmarked) [Compound 380] is higher in “% inh. (percentage inhibition of IL-5 production)” value: 87% for the first, 95% for the second.

First: O=c1cnn(-c2ccc(C(Sc3nccs3)c3ccc(Cl)cc3)c(Cl)c2)c(=O)[nH]1 (racemic) [Compound 63]
Second: Nc1cc(SC(c2ccc(Cl)cc2)c2ccc(-n3ncc(=O)[nH]c3=O)cc2Cl)nc(N)n1 (racemic) [Compound 68]
The “% inh. (percentage inhibition of IL-5 production)” value of the first is higher: 68% for the first, 60% for the second.

First: O=c1cnn(-c2ccc(C(Sc3ncnc4[nH]ncc34)c3ccc(Cl)cc3)c(Cl)c2)c(=O)[nH]1 (racemic) [Compound 74]
Second: O=c1cnn(-c2ccc(C(c3ccncc3)c3ccc(Cl)cc3)c(Cl)c2)c(=O)[nH]1 (centres unmarked) [Comp 112]
The “% inh. (percentage inhibition of IL-5 production)” value of the first is higher: 69% for the first, 62% for the second.

Going from O=c1cnn(-c2cc(Cl)c(C(c3ccc(Cl)cc3)c3nnc(Cc4ccccc4)o3)c(Cl)c2)c(=O)[nH]1 (racemic) [Compound 173] to Nc1ccccc1-c1nnc(C(c2ccc(Cl)cc2)c2c(Cl)cc(-n3ncc(=O)[nH]c3=O)cc2Cl)o1 (racemic) [Compound 211], the “% inh. (percentage inhibition of IL-5 production)” value rises from 44% to 83%.

Compared with Cn1c(-c2ccccc2)nnc1C(c1ccc(Cl)cc1)c1c(Cl)cc(-n2ncc(=O)[nH]c2=O)cc1Cl.O (centres unmarked) [Comp 428], O=c1cnn(-c2cc(Cl)c(C(c3ccc(Cl)cc3)c3nc(-c4cccc(F)c4)cs3)c(Cl)c2)c(=O)[nH]1 (racemic) [Comp 21] is higher in “% inh. (percentage inhibition of IL-5 production)” value: 66% for the first, 91% for the second.

First: O=c1cnn(-c2cc(Cl)c(C(Sc3cnccn3)c3ccc(Cl)c(C(F)(F)F)c3)c(Cl)c2)c(=O)[nH]1 (racemic) [Compound 401]
Second: O=c1cnn(-c2cc(Cl)c(C(Sc3ncccn3)c3ccc(Cl)c(C(F)(F)F)c3)c(Cl)c2)c(=O)[nH]1 (racemic) [Compound 341]
The “% inh. (percentage inhibition of IL-5 production)” value of the first is lower: 92% for the first, 96% for the second.

Compared with O=c1cnn(-c2ccc(C(C3=C(c4ccccc4)SC4=NCCN43)c3ccc(Cl)cc3)c(Cl)c2)c(=O)[nH]1 (centres unmarked) [Comp 433], O=c1cnn(-c2ccc(C(O)(c3ccc(Cl)cc3)c3nc(-c4ccccc4)cs3)c(Cl)c2)c(=O)[nH]1 (racemic) [Comp 34] is higher in “% inh. (percentage inhibition of IL-5 production)” value: 53% for the first, 58% for the second.

First: COc1ccc(Br)c(-c2csc(C(c3ccc(Cl)cc3)c3c(Cl)cc(-n4ncc(=O)[nH]c4=O)cc3Cl)n2)c1 (racemic) [Comp 25]
Second: O=c1cnn(-c2cc(Cl)c(C(c3ccc(Cl)cc3)c3nc(-c4ccc(Cl)c(Cl)c4)cs3)c(Cl)c2)c(=O)[nH]1 (racemic) [Comp 28]
The “% inh. (percentage inhibition of IL-5 production)” value of the first is higher: 88% for the first, 73% for the second.

First: CC(c1ccc(Cl)c(Cl)c1)(c1nc(-c2ccccc2)cs1)c1c(Cl)cc(-n2ncc(=O)[nH]c2=O)cc1Cl (racemic) [Comp 227]
Second: Cc1cc(C(C)(c2nc(-c3ccccc3)cs2)c2ccc(-n3ncc(=O)[nH]c3=O)cc2Cl)ccc1Cl (racemic) [Comp 247]
The “% inh. (percentage inhibition of IL-5 production)” value of the first is lower: 78% for the first, 80% for the second.

Compared with O=c1cnn(-c2ccc(C(SC3CCCCC3)c3ccc(Cl)cc3)c(Cl)c2)c(=O)[nH]1 (centres unmarked) [Compound 90], O=c1cnn(-c2ccc(C(O)(c3ccc(Cl)cc3)c3cccnc3)c(Cl)c2)c(=O)[nH]1 (centres unmarked) [Comp 117] is lower in “% inh. (percentage inhibition of IL-5 production)” value: 60% for the first, 34% for the second.

Same assay, conditions: test dose 1×10^−6 M, 48 hours, read-out: % inh. (percentage inhibition of IL-5 production)

First: O=c1cnn(-c2cc(Cl)c(C(Sc3[nH]c(=S)[nH]c3-c3ccccc3)c3ccc(Cl)c(C(F)(F)F)c3)c(Cl)c2)c(=O)[nH]1 (racemic) [Compound 400, (±)-2-[3,5-dichloro-4-[[4-chloro-3-(trifluoromethyl)phenyl][(2,3-dihydro-5-phenyl-2-thioxo-1H-imidazol-4-yl)thio]-methyl]phenyl]-1,2,4-triazine-3,5(2H,4H)-dione]
Second: O=c1cnn(-c2cc(Cl)c(C(Sc3nnc(-c4ccccc4)o3)c3ccc(Cl)cc3)c(Cl)c2)c(=O)[nH]1 (racemic) [Compound 406, (±)-2-[3,5-dichloro-4-[(4-chlorophenyl)[(5-phenyl-1,3,4-oxadiazol-2-yl)thio]methyl]phenyl]-1,2,4-triazine-3,5(2H,4H)-dione]
The inhibition at 1 µM of the first is lower: 76% for the first, 84% for the second.

Compared with O=c1cnn(-c2cc(Cl)c(C(CO)c3ccc(Cl)cc3)c(Cl)c2)c(=O)[nH]1 (racemic) [Compound 420, (±)-2-[3,5-dichloro-4-[1-(4-chlorophenyl)-2-hydroxyethyl]phenyl]-1,2,4-triazine-3,5(2H,4H)-dione], O=c1cnn(-c2ccc(C(c3ccc(Cl)cc3)c3nc4ccccc4o3)c(Cl)c2)c(=O)[nH]1 (racemic) [Compound 131, (±)-2-[4-[2-benzoxazolyl(4-chlorophenyl)methyl]-3-chlorophenyl]-1,2,4-triazine-3,5(2H,4H)-dione] is higher in inhibition at 1 µM: 33% for the first, 76% for the second.
